Converted amounts (≈) assume the structure as drawn. Where a SMILES comes first, the peptide text is derived from it. Bridges are numbered along the chain shown (N, C = ends). [ ]: non-standard residue; d: D form. The star is where a group is joined. Benzothiazole(5-carbonyl) = O=C(c1ccc2scnc2c1)*; Nicotinoyl(6-CF3) = O=C(c1ccc(C(F)(F)F)nc1)*; X43 = O=C(c1ccc(-c2ccc(Cl)cc2)cn1)*; X63 = O=C(c1ccc(C(F)(F)F)nc1Cl)*; X20 = O=C(c1ccc(C(F)(F)F)s1)*; X38 = O=C(c1cc2sccc2[nH]1)*; X1 = O=C(c1ncc(Cl)cc1Cl)*; X50 = O=C(c1sc(Br)cc1Br)*; X67 = O=C(c1cc(Br)sc1Br)*; Dab = NCC[C@H](N)C(=O)O; Abu = CC[C@H](N)C(=O)O; Dap = NC[C@H](N)C(=O)O
Assays:
Assay type in all cases: cell-based
[1] = test system: Enterobacter cloacae FADDI-EC006; details: FADDI-EC006
Method in brief: (§1)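 MIC; CLSI broth microdilution; cation-adjusted MH broth; test articles as TFA salts; polymyxin B control; polymyxin-susceptible isolates.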

[2] = test system: Acinetobacter baumannii FADDI-AB034; details: FADDI-AB034
Method in brief: as §1

[3] = test system: Klebsiella pneumoniae Kp BM1; details: Kp BM1
Method in brief: (§2)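 Values are MICs of the lipopeptide trifluoroacetic acid salts. Dilution series were set up in CAMHB as CLSI M100-S24 specifies.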

[4] = test system: Pseudomonas aeruginosa FADDI-PA038; details: FADDI-PA038
Method in brief: as §1

[5] = test system: Enterobacter cloacae FADDI-EC003; details: FADDI-EC003
Method in brief: as §1

[6] = test system: Pseudomonas aeruginosa FADDI-PA01; details: FADDI-
Method in brief: as §1

[7] = test system: Enterobacter cloacae FADDI-EC001; details: FADDI-EC001
Method in brief: as §2

[8] = test system: Klebsiella pneumoniae FADDI-KP022; details: FADDI-KP022
Method in brief: as §1

[9] = test system: Pseudomonas aeruginosa FADDI-PA022; details: FADDI-PA022
Method in brief: as §1

[10] = test system: Acinetobacter baumannii ATCC 17978; details: ATCC 17978
Method in brief: as §1

[11] = test system: Klebsiella pneumoniae FADDI-KP032; details: FADDI-KP032
Method in brief: as §1

[12] = test system: Pseudomonas aeruginosa ATCC 27853; details: ATCC 27853
Method in brief: as §1

[13] = test system: Acinetobacter baumannii FADDI-AB030; assay: microbe, parasite or virus in culture; details: FADDI-AB030
Method in brief: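 Broth microdilution MIC in cation-adjusted Mueller-Hinton broth per CLSI M100-S24; lipopeptides tested as TFA salts. FADDI-AB030 is a multidrug-resistant clinical isolate. Polymyxin B sulphate served as control.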

| SMILES | Minimum inhibitory concentration [1] [µg/mL] | Minimum inhibitory concentration [2] [µg/mL] | Minimum inhibitory concentration [3] [µg/mL] | Minimum inhibitory concentration [4] [µg/mL] | Minimum inhibitory concentration [5] [µg/mL] | Minimum inhibitory concentration [6] [µg/mL] | Minimum inhibitory concentration [7] [µg/mL] | Minimum inhibitory concentration [8] [µg/mL] | Minimum inhibitory concentration [9] [µg/mL] | Minimum inhibitory concentration [10] [µg/mL] | Minimum inhibitory concentration [11] [µg/mL] | Minimum inhibitory concentration [12] [µg/mL] | Minimum inhibitory concentration [13] [µg/mL] |
| --- | --- | --- | --- | --- | --- | --- | --- | --- | --- | --- | --- | --- | --- |
| CC(C)C[C@H]1NC(=O)[C@H](CCN)NC(=O)[C@@H](NC(=O)[C@H](CN)NC(=O)[C@@H](NC(=O)[C@H](CCN)NC(=O)c2ccc(-c3ccc(Cl)cc3)cn2)[C@@H](C)O)CCNC(=O)[C@H]([C@@H](C)O)NC(=O)[C@H](CCN)NC(=O)[C@H](CCN)NC(=O)[C@H]([C@@H](C)O)NC1=O [Compound 15] (X43-[Dab]T[Dap][Dab][Dab][dL]T[Dab][Dab]T; lactam 4-C) | 0.25 (≈ 0.205 µM) | 0.5 (≈ 0.41 µM) | 0.5 (≈ 0.41 µM) | 1 (≈ 0.82 µM) | <0.125 | 2 (≈ 1.64 µM) | 0.25 (≈ 0.205 µM) | <0.125 | 2 (≈ 1.64 µM) | 0.5 (≈ 0.41 µM) | 0.25 (≈ 0.205 µM) | 1 (≈ 0.82 µM) | 1 (≈ 0.82 µM) |
| CC[C@@H]1NC(=O)[C@@H](CC(C)C)NC(=O)[C@H](CCN)NC(=O)[C@@H](NC(=O)[C@H](CN)NC(=O)[C@@H](NC(=O)[C@H](CCN)NC(=O)c2ccc(C(F)(F)F)nc2Cl)[C@@H](C)O)CCNC(=O)[C@H]([C@@H](C)O)NC(=O)[C@H](CCN)NC(=O)[C@H](CCN)NC1=O [Compound 40] (X63-[Dab]T[Dap][Dab][Dab][dL][Abu][Dab][Dab]T; lactam 4-C) | <0.125 | <0.125 | <0.125 | 1 (≈ 0.837 µM) | <0.125 | 0.5 (≈ 0.419 µM) | <0.125 | <0.125 | 0.5 (≈ 0.419 µM) | 0.5 (≈ 0.419 µM) | <0.125 | 0.5 (≈ 0.419 µM) | <0.125 |
| CC[C@@H]1NC(=O)[C@@H](CC(C)C)NC(=O)[C@H](CCN)NC(=O)[C@@H](NC(=O)[C@H](CN)NC(=O)[C@@H](NC(=O)[C@H](CCN)NC(=O)c2cc3sccc3[nH]2)[C@@H](C)O)CCNC(=O)[C@H]([C@@H](C)O)NC(=O)[C@H](CCN)NC(=O)[C@H](CCN)NC1=O [Compound 90] (X38-[Dab]T[Dap][Dab][Dab][dL][Abu][Dab][Dab]T; lactam 4-C) | 0.5 (≈ 0.44 µM) | 1 (≈ 0.88 µM) | 0.25 (≈ 0.22 µM) | 0.5 (≈ 0.44 µM) | <0.125 | 0.25 (≈ 0.22 µM) | <0.125 | <0.125 | 0.5 (≈ 0.44 µM) | 2 (≈ 1.76 µM) | 0.25 (≈ 0.22 µM) | 0.5 (≈ 0.44 µM) | 0.5 (≈ 0.44 µM) |
| CC[C@@H]1NC(=O)[C@@H](CC(C)C)NC(=O)[C@H](CCN)NC(=O)[C@@H](NC(=O)[C@H](CN)NC(=O)[C@@H](NC(=O)[C@H](CCN)NC(=O)c2ccc(C(F)(F)F)nc2)[C@@H](C)O)CCNC(=O)[C@H]([C@@H](C)O)NC(=O)[C@H](CCN)NC(=O)[C@H](CCN)NC1=O [Compound 3] ({Nicotinoyl(6-CF3)}-[Dab]T[Dap][Dab][Dab][dL][Abu][Dab][Dab]T; lactam 4-C) | 1 (≈ 0.862 µM) | 1 (≈ 0.862 µM) | 1 (≈ 0.862 µM) | 1 (≈ 0.862 µM) | 0.25 (≈ 0.215 µM) | 0.5 (≈ 0.431 µM) | 0.5 (≈ 0.431 µM) | <0.125 | 1 (≈ 0.862 µM) | 1 (≈ 0.862 µM) | 0.25 (≈ 0.215 µM) | 0.5 (≈ 0.431 µM) | 1 (≈ 0.862 µM) |
| CC[C@@H]1NC(=O)[C@@H](CC(C)C)NC(=O)[C@H](CCN)NC(=O)[C@@H](NC(=O)[C@H](CN)NC(=O)[C@@H](NC(=O)[C@H](CCN)NC(=O)c2cc(Br)sc2Br)[C@@H](C)O)CCNC(=O)[C@H]([C@@H](C)O)NC(=O)[C@H](CCN)NC(=O)[C@H](CCN)NC1=O [Compound 76] (X67-[Dab]T[Dap][Dab][Dab][dL][Abu][Dab][Dab]T; lactam 4-C) | <0.125 | <0.125 | <0.125 | 0.5 (≈ 0.398 µM) | <0.125 | 0.25 (≈ 0.199 µM) | 0.25 (≈ 0.199 µM) | <0.125 | 0.25 (≈ 0.199 µM) | <0.125 | <0.125 | 0.25 (≈ 0.199 µM) | 0.25 (≈ 0.199 µM) |
| CC[C@@H]1NC(=O)[C@@H](CC(C)C)NC(=O)[C@H](CCN)NC(=O)[C@@H](NC(=O)[C@H](CN)NC(=O)[C@@H](NC(=O)[C@H](CCN)NC(=O)c2ccc(C(F)(F)F)s2)[C@@H](C)O)CCNC(=O)[C@H]([C@@H](C)O)NC(=O)[C@H](CCN)NC(=O)[C@H](CCN)NC1=O [Compound 86] (X20-[Dab]T[Dap][Dab][Dab][dL][Abu][Dab][Dab]T; lactam 4-C) | 0.25 (≈ 0.215 µM) | <0.125 | 0.25 (≈ 0.215 µM) | 1 (≈ 0.858 µM) | 0.25 (≈ 0.215 µM) | 0.5 (≈ 0.429 µM) | <0.125 | <0.125 | 0.5 (≈ 0.429 µM) | <0.125 | <0.125 | 0.5 (≈ 0.429 µM) | 0.25 (≈ 0.215 µM) |
| CC(C)C[C@H]1NC(=O)[C@H](CCN)NC(=O)[C@@H](NC(=O)[C@H](CN)NC(=O)[C@@H](NC(=O)[C@H](CCN)NC(=O)c2sc(Br)cc2Br)[C@@H](C)O)CCNC(=O)[C@H]([C@@H](C)O)NC(=O)[C@H](CCN)NC(=O)[C@H](CCN)NC(=O)[C@H](C)NC1=O [Compound 99] (X50-[Dab]T[Dap][Dab][Dab][dL]A[Dab][Dab]T; lactam 4-C) | <0.125 | 0.5 (≈ 0.403 µM) | 0.25 (≈ 0.201 µM) | 1 (≈ 0.806 µM) | 0.25 (≈ 0.201 µM) | 0.25 (≈ 0.201 µM) | <0.125 | <0.125 | 0.25 (≈ 0.201 µM) | 1 (≈ 0.806 µM) | <0.125 | 0.25 (≈ 0.201 µM) | 0.5 (≈ 0.403 µM) |
| CC[C@@H]1NC(=O)[C@@H](CC(C)C)NC(=O)[C@H](CCN)NC(=O)[C@@H](NC(=O)[C@H](CN)NC(=O)[C@@H](NC(=O)[C@H](CCN)NC(=O)c2ccc3scnc3c2)[C@@H](C)O)CCNC(=O)[C@H]([C@@H](C)O)NC(=O)[C@H](CCN)NC(=O)[C@H](CCN)NC1=O [Compound 53] ({Benzothiazole(5-carbonyl)}-[Dab]T[Dap][Dab][Dab][dL][Abu][Dab][Dab]T; lactam 4-C; N-terminus assumed) | 2 (≈ 1.74 µM) | 2 (≈ 1.74 µM) | 0.5 (≈ 0.435 µM) | 0.5 (≈ 0.435 µM) | 0.25 (≈ 0.218 µM) | 0.5 (≈ 0.435 µM) | <0.125 | <0.125 | 0.25 (≈ 0.218 µM) | 2 (≈ 1.74 µM) | <0.125 | 0.5 (≈ 0.435 µM) | 1 (≈ 0.871 µM) |
| C[C@@H](O)[C@@H]1NC(=O)[C@H](CCN)NC(=O)[C@H](CCN)NC(=O)[C@H]([C@@H](C)O)NC(=O)[C@@H](Cc2ccccc2)NC(=O)[C@H](CCN)NC(=O)[C@@H](NC(=O)[C@H](CN)NC(=O)[C@@H](NC(=O)[C@H](CCN)NC(=O)c2ncc(Cl)cc2Cl)[C@@H](C)O)CCNC1=O [Compound 11] (X1-[Dab]T[Dap][Dab][Dab][dF]T[Dab][Dab]T; lactam 4-C) | <0.125 | 1 (≈ 0.826 µM) | 1 (≈ 0.826 µM) | 1 (≈ 0.826 µM) | <0.125 | 0.5 (≈ 0.413 µM) | <0.125 | <0.125 | 0.25 (≈ 0.206 µM) | 1 (≈ 0.826 µM) | <0.125 | 0.25 (≈ 0.206 µM) | 2 (≈ 1.65 µM) |

— patent US11225505B2, “Antimicrobial polymyxin derivative compounds” (MONASH UNIVERSITY, priority 2015, dated 2022)
